Columns and labels:
[1] = target: T1, TrkB (Homo sapiens, UniProt Q16620); test: Trk B Fluorescence Polarization Kinase Assay; assay type: biochemical; details: uncertainty ±10%
T1 construct: purchased Upstate 14-507M
Procedure, shortened: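 The TrkB kinase reaction (50 nM enzyme, 20 ug/mL poly Glu4Tyr, 150 uM ATP, 5 mM MgCl2, 1% DMSO) ran 30 minutes at room temperature and was stopped with EDTA. Phosphorylation was detected by fluorescence-polarization displacement of a fluorescein phosphopeptide from an anti-phosphotyrosine antibody. IC50 came from a variable-slope sigmoidal fit of triplicates.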

[2] = test system: MV4-11 cells; test: Inhibition of MV4-11 cell proliferation (CellTiterGlo); assay type: cell-based; details: Homo sapiens; 72 hours growth; uncertainty ±20%
Procedure: Inhibition of MV4-11 and Baf3 Cell Proliferation
To assess the cellular potency of the compounds of the present invention, FLT3 specific growth inhibition was measured in the leukemic cell line MV4-11 (ATCC Number: CRL-9591). MV4-11 cells are derived from a patient with childhood acute myelomonocytic leukemia with an 11q23 translocation resulting in a MLL gene rearrangement and containing an FLT3-ITD mutation (AML subtype M4)(1,2). MV4-11 cells cannot grow and survive without active FLT3ITD.
To measure proliferation inhibition by test compounds, the luciferase based CellTiterGlo reagent (Promega), which quantifies total cell number based on total cellular ATP concentration, was used. […]
Compound dilutions or 0.1% DMSO (vehicle control) are added to cells and the cells are allowed to grow for 72 hours at standard cell growth conditions (37° C., 5% CO2). […] To measure total cell growth an equal volume of CellTiterGlo reagent was added to each well, according to the manufacturer's instructions, and luminescence was quantified. Total cell growth was quantified as the difference in luminescent counts (relative light units, RLU) of cell number at Day 0 compared to total cell number at Day 3 (72 hours of growth and/or compound treatment). One hundred percent inhibition of growth is defined as an RLU equivalent to the Day 0 reading. […]

[3] = target: T2, isolated kinase domain of the human c-kit receptor (Homo sapiens, UniProt P10721); test: c-Kit Fluorescence Polarization Kinase Assay; assay type: biochemical; details: uncertainty ±10%; read-out: ckit IC50
T2 construct: isolated kinase domain of the human c-kit receptor; purchased ProQinase lot SP005
Procedure: c-Kit Fluorescence Polarization Kinase Assay
The compounds of the present invention are also specific inhibitors of c-Kit. Selection of preferred compounds of Formula I for use as c-Kit inhibitors was performed in the following manner using an in vitro kinase assay to measure inhibition of the isolated kinase domain of the human c-kit receptor in a fluorescence polarization (FP) protocol. The c-kit assay utilized the fluorescein-labeled phosphopeptide and the anti-phosphotyrosine antibody included in the Panvera Phospho-Tyrosine Kinase Kit (Green) supplied by Invitrogen. When c-kit phosphorylated the poly Glu4Tyr, the fluorescein-labeled phosphopeptide was displaced from the anti-phosphotyrosine antibody by the phosphorylated poly Glu4Tyr, thus decreasing the FP value. The c-kit kinase reaction was incubated at room temperature for 45 minutes under the following conditions: 1 nM c-kit (ProQinase, lot SP005), 100 ug/mL poly Glu4Tyr, 50 uM ATP, 5 mM MgCl2, 1 mM DTT, 0.01% Tween-20, 1% DMSO or compound in […], pH 7.5. The kinase reaction was stopped with the addition of EDTA. The fluorescein-labeled phosphopeptide and the anti-phosphotyrosine antibody were added and incubated for 30 minutes at room temperature and fluorescence polarization was read. Data points were an average of triplicate samples. Inhibition and IC50 data analysis were done with GraphPad Prism using a non-linear regression fit with a multiparamater, sigmoidal dose-response (variable slope) equation.

T1 sequence (Q16620 32-822): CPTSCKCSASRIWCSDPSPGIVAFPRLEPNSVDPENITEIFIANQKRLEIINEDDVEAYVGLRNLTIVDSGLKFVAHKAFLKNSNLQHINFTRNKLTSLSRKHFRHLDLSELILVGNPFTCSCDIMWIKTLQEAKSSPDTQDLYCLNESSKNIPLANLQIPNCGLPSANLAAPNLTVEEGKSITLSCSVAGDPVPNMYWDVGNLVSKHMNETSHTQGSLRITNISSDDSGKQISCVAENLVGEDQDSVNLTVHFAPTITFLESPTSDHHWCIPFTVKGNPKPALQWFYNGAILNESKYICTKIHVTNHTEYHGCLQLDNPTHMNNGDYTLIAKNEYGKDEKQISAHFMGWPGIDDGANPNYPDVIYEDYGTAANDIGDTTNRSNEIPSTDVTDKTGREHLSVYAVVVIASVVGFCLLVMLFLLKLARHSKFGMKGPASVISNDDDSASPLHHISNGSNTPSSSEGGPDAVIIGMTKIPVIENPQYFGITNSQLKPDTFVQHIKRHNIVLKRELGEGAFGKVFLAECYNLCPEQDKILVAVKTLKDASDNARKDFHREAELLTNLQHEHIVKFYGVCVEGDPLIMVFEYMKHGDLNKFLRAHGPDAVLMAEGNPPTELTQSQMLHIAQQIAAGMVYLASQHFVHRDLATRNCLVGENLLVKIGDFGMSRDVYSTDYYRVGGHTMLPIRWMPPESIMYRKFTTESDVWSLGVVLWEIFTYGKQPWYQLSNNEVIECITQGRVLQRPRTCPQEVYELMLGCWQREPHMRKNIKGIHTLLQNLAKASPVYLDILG
T2 sequence (P10721 589-937 limits assumed): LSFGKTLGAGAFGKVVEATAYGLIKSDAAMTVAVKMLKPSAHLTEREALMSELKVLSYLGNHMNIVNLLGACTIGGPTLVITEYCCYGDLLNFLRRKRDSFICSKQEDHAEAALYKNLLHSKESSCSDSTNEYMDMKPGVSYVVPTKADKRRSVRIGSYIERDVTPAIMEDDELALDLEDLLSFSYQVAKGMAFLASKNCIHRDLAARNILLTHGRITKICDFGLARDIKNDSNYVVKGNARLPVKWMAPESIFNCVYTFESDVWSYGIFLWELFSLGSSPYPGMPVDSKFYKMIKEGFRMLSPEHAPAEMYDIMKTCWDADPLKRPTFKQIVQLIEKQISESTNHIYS

Structure (SMILES): CC(C)Oc1ccc(NC(=O)N2CCC(c3ncnc4cc(OCCCN5CCN(C)CC5)ccc34)CC2)cc1 [Compound 39]
- IC50 [1]: 600 nM
- IC50 [2]: 14 nM
- IC50 [3]: 14 nM

Source: US8071768B2, “Alkylquinoline and alkylquinazoline kinase modulators” (Janssen Pharmaceutica, N.V., priority 2005, dated 2011)
